From patent publication US11731977B2, “SGC stimulators” (Cyclerion Therapeutics, Inc., priority 2016, dated 2023)

Molecular target: T1, sGC enzyme (Homo sapiens, UniProt Q02108+Q02153)
T1 construct: sGC enzyme activity values in HEK cells, determined by the GloSensor assay; host or cells: HEK293 cells stably expressing GloSensor 40F cGMP biosensor
T1 sequence (Q02153 1-619): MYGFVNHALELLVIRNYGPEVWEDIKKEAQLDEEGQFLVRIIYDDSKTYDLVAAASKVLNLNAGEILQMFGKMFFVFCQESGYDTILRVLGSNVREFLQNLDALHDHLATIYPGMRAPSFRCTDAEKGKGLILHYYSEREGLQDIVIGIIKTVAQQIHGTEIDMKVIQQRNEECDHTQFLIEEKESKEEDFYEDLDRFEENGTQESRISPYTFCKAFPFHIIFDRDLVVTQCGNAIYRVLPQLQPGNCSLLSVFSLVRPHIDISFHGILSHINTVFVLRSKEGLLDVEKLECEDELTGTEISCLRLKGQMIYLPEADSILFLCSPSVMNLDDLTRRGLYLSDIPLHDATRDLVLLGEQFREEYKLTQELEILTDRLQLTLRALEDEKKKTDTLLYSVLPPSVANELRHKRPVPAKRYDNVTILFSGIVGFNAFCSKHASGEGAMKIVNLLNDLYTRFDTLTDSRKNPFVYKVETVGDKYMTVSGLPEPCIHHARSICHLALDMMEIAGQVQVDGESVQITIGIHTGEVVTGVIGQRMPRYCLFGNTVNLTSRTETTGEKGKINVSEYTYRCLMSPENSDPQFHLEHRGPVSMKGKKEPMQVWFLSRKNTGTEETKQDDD
T1 sequence (Q02108 1-690): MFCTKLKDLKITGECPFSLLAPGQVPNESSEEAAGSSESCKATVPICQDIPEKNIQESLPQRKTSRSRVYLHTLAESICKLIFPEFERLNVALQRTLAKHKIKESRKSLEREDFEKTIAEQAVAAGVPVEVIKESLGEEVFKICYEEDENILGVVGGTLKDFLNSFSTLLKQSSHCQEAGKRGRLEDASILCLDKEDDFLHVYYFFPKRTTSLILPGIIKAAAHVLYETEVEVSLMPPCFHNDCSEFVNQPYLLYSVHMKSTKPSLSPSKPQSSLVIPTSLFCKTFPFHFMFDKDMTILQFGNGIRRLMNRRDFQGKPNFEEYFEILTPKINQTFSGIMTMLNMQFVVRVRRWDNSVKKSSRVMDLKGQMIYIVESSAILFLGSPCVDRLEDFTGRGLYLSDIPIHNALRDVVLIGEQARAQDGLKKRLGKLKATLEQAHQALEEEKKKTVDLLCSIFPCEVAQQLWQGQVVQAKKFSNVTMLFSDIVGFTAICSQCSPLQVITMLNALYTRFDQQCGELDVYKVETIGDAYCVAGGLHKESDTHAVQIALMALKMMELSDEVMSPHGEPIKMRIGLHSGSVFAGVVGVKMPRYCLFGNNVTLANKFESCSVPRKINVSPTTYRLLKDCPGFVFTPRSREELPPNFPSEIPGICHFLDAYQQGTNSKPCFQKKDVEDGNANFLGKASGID
Experiment: cGMP GloSensor cell-based assay, 384-well format (Example 2a)
Conditions: HEK293 GloSensor 40F cGMP cells; 10 μM DETA-NONOate; 50% of high control (30 μM Compound Y); read-out: Abs EC50
Excerpt: Human embryonic kidney cells (HEK293) cells expressing GloSensor™ 40F cGMP (Part No: CS182801, Promega) were used to evaluate the activity of test compounds. The luminescent biosensors (engineered luciferase) that were incorporated into these cells detect cGMP formed by the compounds stimulating the sGC enzyme and emit luminescence.
cGMP GloSensor cells were maintained in Dulbecco's Modification of Eagle's Medium (DMEM) supplemented with fetal bovine serum (FBS, 10% final) and hygromycine (200 ug/ml). The day before assay, cells were plated in DMEM with 10% FBS in a 50 μL volume at a density of 1.5×10^4 cells/well in a poly-D-lysine coated 384-well flat white-bottom plate (Corning Cat No 35661). Cells were incubated overnight at 37° C. in a humidified chamber with 5% CO2. The next day, medium was removed and cells were replaced with 40 ul/well of GloSensor™, 2 mM (Promega Cat No E1291). Cells were treated for 90 minutes at 25° C. to allow the substrate to equilibrate in the cells. Test compounds and Diethylenetriamine NONOate (DETA-NONOate, or DETA-NO) was diluted to 3 mM (20×) in serum-free CO2 independent medium and serially diluted at 4× dilutions to create 5× dose curve from which 10 ul was added to the wells (x μM concentration for test compound solution and 10 μM concentration for DETA-NONOate solution; wherein x is one of the following final concentrations: 30000 nM, 7500 nM, 1875 nM, 468.8 nM, 117.2 nM, 29.29 nM, 7.320 nM, 1.830 nM, 0.460 nM, 0.114 nM, and 0.029 nM).
For the kinetics studies, luminescense was measured right away for 0.2 sec per well with Envision (Perkin Elmer). For endpoint SAR screening, data were collected after 55 min incubation at room temperature.
Data were normalized to a high control using the following equation: 100*(Sample−Low Control)/(High Control−Low Control), where the low control is the average of 16 samples treated with 1% DMSO, and the high control is the average of 16 samples treated with 30 μM of Compound Y depicted below. Data were fit using a 4-parameter fit (log(agonist) vs. response—variable slope) using GraphPad Prism Software v.5. n=2 for all compounds. The Absolute (Abs) EC50 was interpolated from the curve fit and is defined as the concentration at which a given compound elicits 50% of the high control response after data normalization as indicated above. Compounds failing to elicit a minimum response of 50% are reported as >30 μM or ND. For compounds run in duplicate or n higher than 2, the result herein given is the geometric mean of the several results obtained.

Row | SMILES | EC50 [µM]
1 | Cc1nc(-c2cn3ccnc3c(Cc3ccccc3F)n2)n(Cc2ccc(F)cc2)n1 [Compound I-42, 8-(2-fluorobenzyl)-6-(1-(4-fluorobenzyl)-3-methyl-1H-1,2,4-triazol-5-yl)imidazo[1,2-a]pyrazine] | > 1
2 | Cc1nc(-c2cn3ccnc3c(Cc3ccccc3F)n2)nn1CCCCF [Compound I-50, 8-(2-Fluorobenzyl)-6-(1-(4-fluorobutyl)-5-methyl-1H-1,2,4-triazol-3-yl)imidazo[1,2-a]pyrazine] | 0.1 to 1
3 | CCn1nc(-c2cn3ccnc3c(Cc3ccccc3F)n2)nc1C [Compound I-53, 6-(1-Ethyl-5-methyl-1H-1,2,4-triazol-3-yl)-8-(2-fluorobenzyl)imidazo[1,2-a]pyrazine] | 0.1 to 1
4 | Cc1nc(-c2cn3ccnc3c(Cc3ccccc3F)n2)nn1CCC(F)(F)F [Compound I-54, 8-(2-Fluorobenzyl)-6-(5-methyl-1-(3,3,3-trifluoropropyl)-1H-1,2,4-triazol-3-yl)imidazo[1,2-a]pyrazine] | 0.1 to 1
5 | Nc1n[nH]c(-c2cn3ccnc3c(Cc3ccccc3F)n2)n1 [Compound I-57, 5-(8-(2-Fluorobenzyl)imidazozo[1,2-a]pyrazin-6-yl)-1H-1,2,4-triazol-3-amine] | 0.1 to 1
6 | Nc1nc(-c2cn3ccnc3c(Cc3ccccc3F)n2)n(CC(F)(F)F)n1 [Compound I-60, 5-(8-(2-fluorobenzyl)imidazo[1,2-a]pyrazin-6-yl)-1-(2,2,2-trifluoroethyl)-1H-1,2,4-triazol-3-amine] | > 1
7 | Fc1ccccc1Cc1nc(-c2nc(-n3ccnc3)n[nH]2)cn2ccnc12 [Compound I-63, 6-(3-(1H-imidazol-1-yl)-1H-1,2,4-triazol-5-yl)-8-(2-fluorobenzyl)imidazo[1,2-a]pyrazine] | 0.1 to 1
8 | CN(C)c1n[nH]c(-c2cn3ccnc3c(Cc3ccccc3F)n2)n1 [Compound I-65, 5-(8-(2-fluorobenzyl)imidazo[1,2-a]pyrazin-6-yl)-N,N-dimethyl-1H-1,2,4-triazol-3-amine] | 0.1 to 1
9 | Fc1ccccc1Cc1nc(-c2nc(C(F)(F)F)n[nH]2)cn2c(I)cnc12 [Compound I-66, 8-(2-Fluorobenzyl)-3-iodo-6-(3-(trifluoromethyl)-1H-1,2,4-triazol-5-yl)imidazo[1,2-a]pyrazine] | 0.1 to 1
10 | Fc1ccccc1Cc1nc(-c2nc(C(F)(F)F)n[nH]2)cn2c(Cl)cnc12 [Compound I-67, 3-Chloro-8-(2-fluorobenzyl)-6-(3-(trifluoromethyl)-1H-1,2,4-triazol-5-yl)imidazo[1,2-a]pyrazine] | ≤ 0.1
11 | Fc1ccccc1Cc1nc(-c2nc(C(F)(F)F)n[nH]2)cn2c(F)cnc12 [Compound I-68, 3-Fluoro-8-(2-fluorobenzyl)-6-(3-(trifluoromethyl)-1H-1,2,4-triazol-5-yl)imidazo[1,2-a]pyrazine] | ≤ 0.1
12 | N#Cc1cnc2c(Cc3ccccc3F)nc(-c3nc(C(F)(F)F)n[nH]3)cn12 [Compound I-70, 8-(2-Fluorobenzyl)-6-(3-(trifluoromethyl)-1H-1,2,4-triazol-5-yl)imidazo[1,2-a]pyrazine-3-carbonitrile] | 0.1 to 1
13 | Fc1ccccc1Cc1nc(-c2nc(C(F)(F)F)n[nH]2)cn2cnnc12 [Compound I-72, 8-(2-Fluorobenzyl)-6-(3-(trifluoromethyl)-1H-1,2,4-triazol-5-yl)-[1,2,4]triazolo[4,3-a]pyrazine] | > 1

More lines, now with the values ahead:

Row | EC50 [µM] | SMILES
14 | ≤ 0.1 | Cc1nc(-c2cn3ccnc3c(Cc3ccccc3F)n2)nn1Cc1cccc(F)c1 [Compound I-47, 8-(2-Fluorobenzyl)-6-(1-(3-fluorobenzyl)-5-methyl-1H-1,2,4-triazol-3-yl)imidazo[1,2-a]pyrazine]
15 | ≤ 0.1 | Cc1nc(-c2cn3ccnc3c(Cc3ccccc3F)n2)nn1CC(=O)C(C)(C)C [Compound I-48, 1-(3-(8-(2-Fluorobenzyl)imidazo[1,2-a]pyrazin-6-yl)-5-methyl-1H-1,2,4-triazol-1-yl)-3,3-dimethylbutan-2-one]
16 | ≤ 0.1 | Cc1cc(Cn2nc(-c3cn4ccnc4c(Cc4ccccc4F)n3)nc2C)no1 [Compound I-51, 3-((3-(8-(2-Fluorobenzyl)imidazo[1,2-a]pyrazin-6-yl)-5-methyl-1H-1,2,4-triazol-1-yl)methyl)-5-methylisoxazole]
17 | ≤ 0.1 | CCCCn1nc(-c2cn3ccnc3c(Cc3ccccc3F)n2)nc1C [Compound I-56, 6-(1-Butyl-5-methyl-1H-1,2,4-triazol-3-yl)-8-(2-fluorobenzyl)imidazo[1,2-a]pyrazine]
18 | ≤ 0.1 | Nc1nc(-c2cn3ccnc3c(Cc3ccccc3F)n2)nn1Cc1cccc(F)c1 [Compound I-58, 1-(3-Fluorobenzyl)-3-(8-(2-fluorobenzyl)imidazo[1,2-a]pyrazin-6-yl)-1H-1,2,4-triazol-5-amine]
19 | ≤ 0.1 | Nc1nc(-c2cn3ccnc3c(Cc3ccccc3F)n2)nn1CC(F)(F)F [Compound I-59, 3-(8-(2-Fluorobenzyl)imidazo[1,2-a]pyrazin-6-yl)-1-(2,2,2-trifluoroethyl)-1H-1,2,4-triazol-5-amine]
20 | ≤ 0.1 | Fc1ccccc1Cc1nc(-c2nc(Cl)n[nH]2)cn2ccnc12 [Compound I-62, 6-(3-Chloro-1H-1,2,4-triazol-5-yl)-8-(2-fluorobenzyl)-imidazo[1,2-a]pyrazine]
21 | ≤ 0.1 | Cc1cnc2c(Cc3ccccc3F)nc(-c3nc(C(F)(F)F)n[nH]3)cn12 [Compound I-71, 8-(2-Fluorobenzyl)-3-methyl-6-(3-(trifluoromethyl)-1H-1,2,4-triazol-5-yl)imidazo[1,2-a]pyrazine]
